Source: patent US20230114728A1 (Venatorx Pharmaceuticals, Inc., priority 2019, published 2023)
≈ marks a conversion by molar mass, not a printed value.

Legend:
N. gonorrhoeae WHO Q = assay: Liquid broth MIC in Fastidious broth; format: cell-based; conditions: Neisseria gonorrhoeae, read-out: Minimum Inhibitory Concentration, N. gonorrhoeae WHO Q
Summary of the method: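 Colonies were swabbed from chocolate agar after 24 h growth and standardised by optical density at 600 nm. Compounds were serially diluted twofold in Fastidious broth, and bacteria added to give 5×10^5 CFU/mL. After about 24 h at 36 °C in 5% CO2, the lowest concentration allowing under 10% growth was taken as MIC.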

[1] = Bocillin-FL fluorescence polarization competition binding assay, A. baumannii PBP3; conditions: fluorescence polarization competition binding assay using Bocillin-FL; column 3; read-out: 4. baumannii PBP1a Potency
Summary of the method: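 A. baumannii PBP2 (2.5 μM) and PBP3 (0.2 μM) were run in 25 mM Tris pH 8.0 buffer with Tween 20; E. coli PBP3 (1.5 μM) and N. gonorrhoeae PBP2 ([…]) in 50 mM Hepes pH 8.0 buffer.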

N. gonorrhoeae PBP2 = molecular target: T1, N. gonorrhoeae PBP2 (Neisseria gonorrhoeae, UniProt P08149); assay: Bocillin-FL fluorescence polarization competition binding assay, N. gonorrhoeae PBP2; conditions: fluorescence polarization competition binding assay using Bocillin-FL; read-out: N. gonorrhoeae PBP2 Potency
T1 construct: made in house
T1 sequence (P08149 whole entry): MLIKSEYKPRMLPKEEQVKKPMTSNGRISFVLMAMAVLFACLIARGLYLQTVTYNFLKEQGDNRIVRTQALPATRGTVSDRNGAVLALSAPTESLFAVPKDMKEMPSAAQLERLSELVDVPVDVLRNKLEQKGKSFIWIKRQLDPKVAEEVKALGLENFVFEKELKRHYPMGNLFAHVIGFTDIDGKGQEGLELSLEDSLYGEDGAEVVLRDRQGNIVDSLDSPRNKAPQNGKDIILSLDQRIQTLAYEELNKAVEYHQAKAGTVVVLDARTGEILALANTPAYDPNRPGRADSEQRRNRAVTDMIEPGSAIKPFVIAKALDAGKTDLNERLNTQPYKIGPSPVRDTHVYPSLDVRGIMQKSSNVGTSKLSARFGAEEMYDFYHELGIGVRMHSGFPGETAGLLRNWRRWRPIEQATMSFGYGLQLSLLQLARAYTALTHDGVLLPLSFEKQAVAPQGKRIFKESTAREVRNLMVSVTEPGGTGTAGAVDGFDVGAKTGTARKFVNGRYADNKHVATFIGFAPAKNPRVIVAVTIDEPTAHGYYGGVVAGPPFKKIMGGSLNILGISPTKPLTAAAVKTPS
Description: Example I: Experimental Method for Penicillin-Binding Protein Binding Assays with Bocillin-FL Via Fluorescence Polarization
To determine the ability of boronic acid-based test PBP inhibitors to bind Penicillin Binding Proteins (PBPs), Bocillin-FL (fluorescently-labeled penicillin V; ThermoFisher Scientific) was used in a fluorescence polarization (FP) competition binding assay to assess inhibitor binding to PBP2, PBP3 or PBP4 from Escherichia coli (K12), PBP3 from Pseudomonas aeruginosa (PA01), PBP1a, PBP2 and PBP3 from Acinetobacter baumannii (ATCC 19606), and PBP2 from Neiserria gonorrheae (FA19). PBPs were cloned and purified as described previously (E. coli PBPs, King, D. T, et al., ACS Infectious Diseases 2015, 1, 175-184; P. aeruginosa PBP3, Han et. al., PNAS 2010, 107 (51), 22002-22007; A. baumannii PBPs, Penwell et. al., Antimicrob. Agents Chemother. 2015, 59 (3), 1680-1689; N. gonorrhoeae PBP2, Singh et. al., J Biol. Chem. 2019, 294 (38), 14020-14032). To establish assay conditions for competition binding, enzyme titration/saturation binding experiments were initially performed. Bocillin-FL was prepared at 0.2 μM in a buffer comprised of 50 mM Hepes (pH 8.0), 300 mM NaCl and 5% (v/v) glycerol for reactions with E. coli, P. aeruginosa and N. gonorrhoeae PBPs, and 25 mM Tris (pH 8.0), 200 mM NaCl and 10% (v/v) glycerol and 0.005% (v/v) Tween 20 for reactions with A. baumannii PBPs. Saturation binding was performed by mixing 40 μl of PBP solutions ranging in concentrations from 0-24 μM with 40 μl of the 0.2 μM Bocillin-FL solution, in individual wells of a black 384-well microplate. FP was measured immediately upon mixing (Excitation, 490 nm; Emission, 520 nm; g-factor, 0.96), using a Cytation3 (BioTek) microplate reader and measured continuously for up to 120 minutes. […] The competition binding assay (80 μl final volume) was validated using beta-lactams and PBPs at final concentrations of: 1.5 μM, E. coli PBP3; 0.75 μM, P. aeruginosa PBP3; 1 μM A. baumannii PBP1a; 2.5 μM A. baumannii PBP2; 0.2 μM A. baumannii PBP3; and […] N. gonorrhoeae PBP2. Bocillin-FL was at 0.1 μM (0.05 μM with A. baumannii PBP1a) and beta-lactam concentrations ranged from 0-1000 μM. […] Bocillin-FL was added and the FP immediately measured for up to 60 minutes (90 minutes for E. coli PBP2). […] The beta-lactam potency was reported as the concentration of beta-lactam required to reduce the amount of PBP bound-Bocillin-FL by 50% (EC50). […] Binding assays for boronic acid PBP inhibitors were performed in an identical fashion for the respective PBPs

Row | Compound | MIC (N. gonorrhoeae WHO Q) | EC50 [1] | EC50 (N. gonorrhoeae PBP2)
1 | NCCN1CCN(C(=O)N[C@@H](C(=O)N[C@H]2Cc3cccc(C(=O)O)c3OB2O)c2ccc(C(=O)O)cc2)C(=O)C1=O (single isomer, unassigned) [Example 84] | 16 to 32 µg/mL (≈ 28.2 to 56.4 µM) | 30 to 100 µM | < 10 µM
2 | NCCN1CCN(C(=O)N[C@H](C(=O)N[C@H]2Cc3cccc(C(=O)O)c3OB2O)c2ccc(O)cc2Cl)C(=O)C1=O (single isomer, unassigned) [Example 85] | > 64 µg/mL | > 100 µM | 10 to 30 µM
3 | CCN1CCN(C(=O)NC(C(=O)N[C@H]2Cc3cccc(C(=O)O)c3OB2O)c2ccc(C(=O)O)c(F)c2)C(=O)C1=O (stereo partly drawn) [Example 31, (3R)-3-(2-(4-carboxy-3-fluorophenyl)-2-(4-ethyl-2,3-dioxopiperazine-1-carboxamido)acetamido)-2-hydroxy-3,4-dihydro-2H-benzo[e][1,2]oxaborinine-8-carboxylic acid] | – | < 10 µM | < 10 µM
